Where two headings read alike, the source gives them in different places.
Assays:
human GLP-1R [1] = target: human GLP-1R (Homo sapiens, UniProt P43220, G168S); test: CHO GLP-1R Clone H6 - Assay 1 (HTRF cAMP agonist assay); format: cell-based; conditions: for EC50: CHO GLP-1R Clone H6, cAMP HTRF, geometric mean
Method: GLP-1R-mediated agonist activity was determined with a cell-based functional assay utilizing an HTRF (Homogeneous Time-Resolved Fluorescence) cAMP detection kit (cAMP HI Range Assay Kit; CisBio cat #62AM6PEJ) that measures cAMP levels in the cell. The method is a competitive immunoassay between native cAMP produced by the cells and exogenous cAMP labeled with the dye d2. The tracer binding is visualized by a mAb anti-cAMP labeled with Cryptate. The specific signal (i.e. energy transfer) is inversely proportional to the concentration of cAMP in either standard or experimental sample.
The human GLP-1R coding sequence (NCBI Reference Sequence NP_002053.3, including naturally-occurring variant Gly168Ser) was subcloned into pcDNA3 (Invitrogen) and a cell line stably expressing the receptor was isolated (designated Clone H6).
Cells were removed from cryopreservation, re-suspended in 40 mL of Dulbecco's Phosphate Buffered Saline (DPBS—Lonza Cat #17-512Q) and centrifuged at 800×g for 5 minutes at 22° C. The cell pellet was then re-suspended in 10 mL of growth medium [DMEM/F12 1:1 Mixture with HEPES, L-Gln, 500 mL (DMEM/F12 Lonza Cat #12-719F), 10% heat inactivated fetal bovine serum (Gibco Cat #16140-071), 5 mL of 100× Pen-Strep (Gibco Cat #15140-122), 5 mL of 100×L-Glutamine (Gibco Cat #25030-081) and 500 μg/mL Geneticin (G418) (Invitrogen #10131035)]. A 1 mL sample of the cell suspension in growth media was counted on a Becton Dickinson ViCell to determine cell viability and cell count per mL. The remaining cell suspension was then adjusted with growth media to deliver 2000 viable cells per well using a Matrix Combi Multidrop reagent dispenser, and the cells were dispensed into a white 384 well tissue culture treated assay plate (Corning 3570). The assay plate was then incubated for 48 hours at 37° C. in a humidified environment in 5% carbon dioxide.
Varying concentrations of each compound to be tested (in DMSO) were diluted in assay buffer (HBSS with Calcium/Magnesium (Lonza/BioWhittaker cat #10-527F)/0.1% BSA (Sigma Aldrich cat # A7409-1L)/20 mM HEPES (Lonza/BioWhittaker cat #17-737E) containing 100 μM 3-isobutyl-1-methylxanthin (IBMX; Sigma cat #15879). The final DMSO concentration is 1%.
After 48 hours, the growth media was removed from the assay plate wells, and the cells were treated with 20 μL of the serially diluted compound in assay buffer for 30 minutes at 37° C. in a humidified environment in 5% carbon dioxide. Following the 30 minute incubation, 10 μL of labeled d2 cAMP and 10 μL of anti-cAMP antibody (both diluted 1:20 in cell lysis buffer; as described in the manufacturer's assay protocol) were added to each well of the assay plate. The plates were then incubated at room temperature and after 60 minutes, changes in the HTRF signal were read with an Envision 2104 multi-label plate reader using excitation of 330 nm and emissions of 615 and 665 nm. Raw data were converted to nM cAMP by interpolation from a cAMP standard curve (as described in the manufacturer's assay protocol) and the percent effect was determined relative to a saturating concentration of the full agonist GLP-17-36 (1 μM) included on each plate. EC50 determinations were made from agonist dose-response curves analyzed with a curve fitting program using a 4-parameter logistic dose response equation.

human GLP-1R [2] = target: human GLP-1R (Homo sapiens (Human), UniProt P43220, L260F); test: CHO GLP-1R Clone C6 - Assay 2 (HTRF cAMP agonist assay, low receptor density); conditions: for EC50: cAMP HTRF, geometric mean; for Emax: read-out: Assay 2 Emax (%), CHO GLP-1R Clone C6 (low receptor density)
[3] = CHO GLP-1R Clone H6, arithmetic mean, relative to saturating GLP-1 (1 μM)
[4] = read-out: Assay 2 EC50, CHO GLP-1R Clone C6 (low receptor density)
[5] = arithmetic mean, relative to saturating GLP-1 (1 μM)
[6] = Assay 2 EC50 (nM), CHO GLP-1R Clone C6 (low receptor density)

Sequence of human GLP-1R (Homo sapiens, UniProt P43220, G168S) (P43220 24-463 G168S limits assumed): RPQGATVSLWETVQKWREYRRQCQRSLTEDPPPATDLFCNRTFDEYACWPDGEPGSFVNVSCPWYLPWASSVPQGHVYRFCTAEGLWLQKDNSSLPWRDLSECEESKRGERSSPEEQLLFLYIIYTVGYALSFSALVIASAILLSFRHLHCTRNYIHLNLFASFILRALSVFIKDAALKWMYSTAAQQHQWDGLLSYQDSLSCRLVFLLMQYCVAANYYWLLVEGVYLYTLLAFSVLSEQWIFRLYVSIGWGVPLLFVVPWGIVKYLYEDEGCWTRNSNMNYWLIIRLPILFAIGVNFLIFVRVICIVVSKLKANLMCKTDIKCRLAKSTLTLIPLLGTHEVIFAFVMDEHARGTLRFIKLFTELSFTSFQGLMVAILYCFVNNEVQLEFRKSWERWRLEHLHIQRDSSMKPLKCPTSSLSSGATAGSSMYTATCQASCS
Sequence of human GLP-1R (Homo sapiens (Human), UniProt P43220, L260F) (P43220 24-463 L260F): as the sequence (P43220 24-463 G168S limits assumed) above, with S145G, L237F counted along it

COCCn1c(CN2CCC(c3cccc4c3OC(C)(c3cccc(F)c3)O4)CC2)nc2ccc(C(=O)O)cc21 (centres unmarked) [Example 31, 2-({4-[2-(3-fluorophenyl)-2-methyl-1,3-benzodioxol-4-yl]piperidin-1-yl}methyl)-1-(2-methoxyethyl)-1H-benzimidazole-6-carboxylic acid]
EC50 (human GLP-1R [1]): 0.19 µM | Emax (human GLP-1R [1]; [3]): 88% | EC50 (human GLP-1R [2]; [4]): 1900 nM | Emax (human GLP-1R [2]; [5]): 65%

Cn1cc(CCn2c(CN3CCC(c4cccc5c4OC(C)(c4ccc(Cl)cc4F)O5)CC3)nc3ccc(C(=O)O)cc32)nn1 (centres unmarked) [Example 60, 2-({4-[2-(4-chloro-2-fluorophenyl)-2-methyl-1,3-benzodioxol-4-yl]piperidin-1-yl}methyl)-1-[2-(1-methyl-1H-1,2,3-triazol-4-yl)ethyl]-1H-benzimidazole-6-carboxylic acid]
EC50 (human GLP-1R [1]): 0.015 µM | Emax (human GLP-1R [1]; [3]): 82% | EC50 (human GLP-1R [2]; [4]): 240 nM | Emax (human GLP-1R [2]; [5]): 60%

Cn1cnnc1Cn1c(CN2CCC(c3cccc4c3OC(C)(c3ccc(Cl)cc3F)O4)CC2)nc2ccc(C(=O)O)cc21 (centres unmarked) [Example 78, 2-({4-[2-(4-chloro-2-fluorophenyl)-2-methyl-1,3-benzodioxol-4-yl]piperidin-1-yl}methyl)-1-[(4-methyl-4H-1,2,4-triazol-3-yl)methyl]-1H-benzimidazole-6-carboxylic acid]
EC50 (human GLP-1R [1]): 0.0045 µM | Emax (human GLP-1R [1]; [3]): 89% | EC50 (human GLP-1R [2]; [4]): 78 nM | Emax (human GLP-1R [2]; [5]): 100%

COCc1cc(Cn2c(CN3CCC(c4cccc5c4OC(C)(c4ccc(Cl)cc4F)O5)CC3)nc3ccc(C(=O)O)cc32)[nH]n1 (centres unmarked) [Example 68, 2-({4-[2-(4-chloro-2-fluorophenyl)-2-methyl-1,3-benzodioxol-4-yl]piperidin-1-yl}methyl)-1-{[3-(methoxymethyl)-1H-pyrazol-5-yl]methyl}-1H-benzimidazole-6-carboxylic acid]
EC50 (human GLP-1R [1]): 0.073 µM | Emax (human GLP-1R [1]; [3]): 89% | EC50 (human GLP-1R [2]; [4]): 1200 nM | Emax (human GLP-1R [2]; [5]): 94%

CC1(c2ccc(Cl)cc2F)Oc2cccc(C3CCN(Cc4nc5ccc(C(=O)O)cc5n4CC4CCOC4)CC3)c2O1 (centres unmarked) [Example 56, 2-({4-[2-(4-chloro-2-fluorophenyl)-2-methyl-1,3-benzodioxol-4-yl]piperidin-1-yl}methyl)-1-(tetrahydrofuran-3-ylmethyl)-1H-benzimidazole-6-carboxylic acid]
EC50 (human GLP-1R [1]): 0.0012 µM | Emax (human GLP-1R [1]; [3]): 87% | EC50 (human GLP-1R [2]; [4]): 11 nM | Emax (human GLP-1R [2]; [5]): 81%

CC1(c2ccc(C#N)cc2F)Oc2cccc(C3CCN(Cc4nc5ccc(C(=O)O)cc5n4C[C@@H]4CCO4)CC3)c2O1 (single isomer, unassigned) [Example 9]
EC50 (human GLP-1R [1]): 0.073 µM | Assay 1 Emax (%) (human GLP-1R [1]; [3]): 88% | EC50 (human GLP-1R [2]; [6]): 1600 nM | Assay 2 Emax (%) (human GLP-1R [2]; CHO GLP-1R Clone C6 (low receptor density), arithmetic mean, relative to saturating GLP-1 (1 μM)): 90%

CCn1ccnc1Cn1c(CN2CCC(c3cccc4c3OC(C)(c3ccc(Cl)cc3F)O4)CC2)nc2ccc(C(=O)O)cc21 (centres unmarked) [Example 51, 2-({4-[2-(4-chloro-2-fluorophenyl)-2-methyl-1,3-benzodioxol-4-yl]piperidin-1-yl}methyl)-1-[(1-ethyl-1H-imidazol-2-yl)methyl]-1H-benzimidazole-6-carboxylic acid]
EC50 (human GLP-1R [1]): 0.019 µM | Emax (human GLP-1R [1]; [3]): 80% | EC50 (human GLP-1R [2]; [4]): 280 nM | Emax (human GLP-1R [2]; [5]): 81%

CC1(c2ccc(Cl)cc2F)Oc2cccc(C3CCN(Cc4nc5ccc(C(=O)O)cc5n4Cc4cn[nH]c4)CC3)c2O1 (centres unmarked) [Example 73, 2-({4-[2-(4-chloro-2-fluorophenyl)-2-methyl-1,3-benzodioxol-4-yl]piperidin-1-yl}methyl)-1-(1H-pyrazol-4-ylmethyl)-1H-benzimidazole-6-carboxylic acid]
EC50 (human GLP-1R [1]): 0.0017 µM | Emax (human GLP-1R [1]; [3]): 98% | EC50 (human GLP-1R [2]; [4]): 10 nM | Emax (human GLP-1R [2]; [5]): 100%

COCCn1c(CN2CCC(c3cccc4c3OC(C)(c3ccc(F)cc3)O4)CC2)nc2ccc(C(=O)O)cc21 (centres unmarked) [Example 38, 2-({4-[2-(4-fluorophenyl)-2-methyl-1,3-benzodioxol-4-yl]piperidin-1-yl}methyl)-1-(2-methoxyethyl)-1H-benzimidazole-6-carboxylic acid]
EC50 (human GLP-1R [1]): 0.01 µM | Emax (human GLP-1R [1]; [3]): 87% | EC50 (human GLP-1R [2]; [4]): 240 nM | Emax (human GLP-1R [2]; [5]): 73%

CC1(c2ccc(Cl)cc2F)Oc2cccc(C3CCN(Cc4nc5ccc(C(=O)O)cc5n4CCCn4cncn4)CC3)c2O1 (centres unmarked) [Example 54, 2-({4-[2-(4-chloro-2-fluorophenyl)-2-methyl-1,3-benzodioxol-4-yl]piperidin-1-yl}methyl)-1-[3-(1H-1,2,4-triazol-1-yl)propyl]-1H-benzimidazole-6-carboxylic acid]
EC50 (human GLP-1R [1]): 0.018 µM | Emax (human GLP-1R [1]; [3]): 82% | EC50 (human GLP-1R [2]; [4]): 160 nM | Emax (human GLP-1R [2]; [5]): 64%

COCCn1c(CN2CCC(c3cccc4c3OC(C)(c3ccc(C#N)cn3)O4)CC2)nc2ccc(C(=O)O)cc21 (centres unmarked) [Example 94, ammonium 2-({4-[2-(5-cyanopyridin-2-yl)-2-methyl-1,3-benzodioxol-4-yl]piperidin-1-yl}methyl)-1-(2-methoxyethyl)-1H-benzimidazole-6-carboxylate]
EC50 (human GLP-1R [1]): 0.012 µM | EC50 (human GLP-1R [2]; [4]): 360 nM | Emax (human GLP-1R [2]; [5]): 87%

Cn1ncnc1Cn1c(CN2CCC(c3cccc4c3OC(C)(c3ccc(Cl)cc3F)O4)CC2)nc2ccc(C(=O)O)cc21 (centres unmarked) [Example 57, 2-({4-[2-(4-chloro-2-fluorophenyl)-2-methyl-1,3-benzodioxol-4-yl]piperidin-1-yl}methyl)-1-[(1-methyl-1H-1,2,4-triazol-5-yl)methyl]-1H-benzimidazole-6-carboxylic acid]
EC50 (human GLP-1R [1]): 0.015 µM | Emax (human GLP-1R [1]; [3]): 86% | EC50 (human GLP-1R [2]; [4]): 500 nM | Emax (human GLP-1R [2]; [5]): 98%

COCCn1c(CN2CCN(c3cccc4c3OC(c3ccc(Cl)cc3F)O4)CC2)nc2ccc(C(=O)O)cc21 (single isomer, unassigned) [Example 1, 2-({4-[2-(4-Chloro-2-fluorophenyl)-1,3-benzodioxol-4-yl]piperazin-1-yl}methyl)-1-(2-methoxyethyl)-1H-benzimidazole-6-carboxylic Acid]
EC50 (human GLP-1R [1]): 0.88 µM | Emax (human GLP-1R [1]; [3]): 99% | EC50 (human GLP-1R [2]; [6]): > 20000 nM

COCCn1c(CN2CCC(c3cccc4c3OC(C)(c3ccc(C(F)(F)F)cc3)O4)CC2)nc2ccc(C(=O)O)cc21 (centres unmarked) [Example 40, 1-(2-methoxyethyl)-2-[(4-{2-methyl-2-[4-(trifluoromethyl)phenyl]-1,3-benzodioxol-4-yl}piperidin-1-yl)methyl]-1H-benzimidazole-6-carboxylic acid]
EC50 (human GLP-1R [1]): 0.014 µM | Emax (human GLP-1R [1]; [3]): 88% | EC50 (human GLP-1R [2]; [4]): 130 nM | Emax (human GLP-1R [2]; [5]): 73%

COCCn1c(CN2CCC(c3cccc4c3OC(C)(c3ccc(OC)cc3)O4)CC2)nc2ccc(C(=O)O)cc21 (centres unmarked) [Example 32, 1-(2-methoxyethyl)-2-({4-[2-(4-methoxyphenyl)-2-methyl-1,3-benzodioxol-4-yl]piperidin-1-yl}methyl)-1H-benzimidazole-6-carboxylic acid]
EC50 (human GLP-1R [1]): 0.018 µM | Emax (human GLP-1R [1]; [3]): 86% | EC50 (human GLP-1R [2]; [4]): 450 nM | Emax (human GLP-1R [2]; [5]): 87%

COCCn1c(CN2CCC(c3cccc4c3OC(C)(c3ccccc3)O4)CC2)nc2ccc(C(=O)O)cc21 (centres unmarked) [Example 82, 1-(2-methoxyethyl)-2-{[4-(2-methyl-2-phenyl-1,3-benzodioxol-4-yl)piperidin-1-yl]methyl}-1H-benzimidazole-6-carboxylic acid]
EC50 (human GLP-1R [1]): 0.047 µM | Emax (human GLP-1R [1]; [3]): 83% | EC50 (human GLP-1R [2]; [4]): 1000 nM | Emax (human GLP-1R [2]; [5]): 83%
